Results taken from patent US20230069963A1, “PYRAZOLO[1,5-A]PYRIMIDINE MACROCYCLIC COMPOUND” (priority 2018, published 2023).
Structures can show the parent of a compound that is named as a salt.

system: RSV ATCC VR-1540 (A2); assay: microbe, parasite or virus in culture; type: cell-based; details: human respiratory syncytial virus, HEp-2, 96 h; Hep2 cells, incubated for 4 days, CPE detected with XTT assay (absorbance 450 nm); read-out: EC50 (nmol/L) against RSV A2 strain

First: CN1CCNC(=O)COc2ccc(Cl)cc2C(=O)N2CCCCC2c2cc3nc(C4CC(O)C4)cc1n3n2 [Example 111, (18aS)-2-chloro-13-(cis-3-hydroxycyclobutyl)-11-methyl-8,9,10,11,19,20,21,22-octahydro-18aH,24H-18,15-(metheno)pyrido[2,1-l]pyrimido[6,1-h][1,4,7,9,10,13]benzoxapentaazacyclohexadecine-7,24(6H)-dione]
Second: O=C1COc2ccc(F)cc2C(=O)N2CCCC[C@H]2c2cc3nc(C4CC4)cc(n3n2)CCCN1 [Example 121, (18aS)-13-cyclopropyl-2-fluoro-8,9,10,11,19,20,21,22-octahydro-18aH,24H-18,15-(metheno)pyrido[2,1-l]pyrimido[6,1-h][1,4,9,10,13]benzoxatemazacyclohexadecine-7,24(6H)-dione]
The EC50 of the first is lower: 0.448 nmol/L for the first, 11 nmol/L for the second. The first is the more potent here.

First: CN1CCNCCOc2ccc(F)cc2C(=O)N2CCCC[C@H]2c2cc3nc(N4CCC4)cc1n3n2 [Example 133, (18aS)-13-(azetidin-1-yl)-2-fluoro-11-methyl-6,7,8,9,10,11,19,20,21,22-decahydro-18aH,24H-18,15-(metheno)pyrido[2,1-l]pyrimido[6,1-h][1,4,7,9,10,13]benzoxapentaazacyclohexadecin-24-one]
Second: CN1CCNCCOc2ccc(F)cc2C(=O)N2CCCC[C@H]2c2cc3nc(N4CCC4)c(F)c1n3n2 [Example 198, (18aS)-13-(azetidin-1-yl)-2,12-difluoro-11-methyl-6,7,8,9,10,11,19,20,21,22-decahydro-18aH,24H-18,15-(metheno)pyrido[2,1-l]pyrimido[6,1-h][1,4,7,9,10,13]benzoxapentaazacyclohexadecin-24-one]
The EC50 of the first is lower: 1.36 nmol/L for the first, 2.82 nmol/L for the second. The first is the more potent here.

First: CC1COc2ccc(F)cc2C(=O)N2CCCCC2c2cc3nc(N4CC(N)C4)cc(n3n2)N(C)CCN1 [Example 145, (18aS)-13-(3-aminoazetidin-1-yl)-2-fluoro-7,11-dimethyl-6,7,8,9,10,11,19,20,21,22-decahydro-18aH,24H-18,15-(metheno)pyrido[2,1-l]pyrimido[6,1-h][1,4,7,9,10,13]benzoxapentaazacyclohexadecin-24-one]
Second: CN1CCOc2ccc(Cl)cc2C(=O)N2CCCC[C@H]2c2cc3nc(N4CC(N)C4)cc(n3n2)N(C)CC1 [Example 151, (18aS)-13-(3-aminoazetidin-1-yl)-2-chloro-8,11-dimethyl-6,7,8,9,10,11,19,20,21,22-decahydro-18aH,24H-18,15-(metheno)pyrido[2,1-l]pyrimido[6,1-h][1,4,7,9,10,13]benzoxapentaazacyclohexadecin-24-one]
The EC50 of the first is higher: 17.5 nmol/L for the first, 17 nmol/L for the second. The second is the more potent here.

Compared with `CN1CCOc2ccc(Cl)cc2C(=O)N2CCCC[C@H]2c2cc3nc(NC4CNC4)cc(n3n2)N(C)CC1` [Example 161, (18aS)-13-[(azetidin-3-yl)amino]-2-chloro-8,11-dimethyl-6,7,8,9,10,11,19,20,21,22-decahydro-18aH,24H-18,15-(metheno)pyrido[2,1-l]pyrimido[6,1-h][1,4,7,9,10,13]benzoxapentaazacyclohexadecin-24-one], `CN1CCOc2ccc(Cl)cc2C(=O)N2CCCC[C@H]2c2cc3nc(N4CC(F)C4)cc(n3n2)N(C)CC1` [Example 162, (18aS)-2-chloro-13-(3-fluoroazetidin-1-yl)-8,11-dimethyl-6,7,8,9,10,11,19,20,21,22-decahydro-18aH,24H-18,15-(metheno)pyrido[2,1-l]pyrimido[6,1-h][1,4,7,9,10,13]benzoxapentaazacyclohexadecin-24-one] is lower in EC50: 19.6 nmol/L for the first, 4.51 nmol/L for the second. The second is the more potent here.

First: CN1CCOc2ccc(Cl)cc2C(=O)N2CCCC[C@H]2c2cc3nc(N4CC(CN)C4)cc(n3n2)N(C)CC1 [Example 163, (18aS)-13-[3-(aminomethyl)azetidin-1-yl]-2-chloro-8,11-dimethyl-6,7,8,9,10,11,19,20,21,22-decahydro-18aH,24H-18,15-(metheno)pyrido[2,1-l]pyrimido[6,1-h][1,4,7,9,10,13]benzoxapentaazacyclohexadecin-24-one]
Second: Cc1ccc2c(c1)C(=O)N1CCCC[C@H]1c1cc3nc(N4CCC4)cc(n3n1)N(C)CCN(C)CCO2 [Example 173, (18aS)-13-(azetidin-1-yl)-2,8,11-trimethyl-6,7,8,9,10,11,19,20,21,22-decahydro-18aH,24H-18,15-(metheno)pyrido[2,1-l]pyrimido[6,1-h][1,4,7,9,10,13]benzoxapentaazacyclohexadecin-24-one]
The EC50 of the first is higher: ~10 nmol/L for the first, 1.3 nmol/L for the second.

First: Cc1ccc2c(c1)C(=O)N1CCCC[C@H]1c1cc3nc(N4CCC4)cc(n3n1)N(C)CCN(S(N)(=O)=O)CCO2 [Example 178, (18aS)-13-(azetidin-1-yl)-2,11-dimethyl-24-oxo-6,7,10,11,19,20,21,22-octahydro-8aH,24H-18,15-(metheno)pyrido[2,1-l]pyrimido[6,1-h][1,4,7,9,10,13]benzoxapentaazacyclohexadecine-8(9H)-sulfonamide]
Second: Cc1ccc2c(c1)C(=O)N1CCCC[C@H]1c1cc3nc(N4CC(N)C4)cc(n3n1)N(C)CCN(S(C)(=O)=O)CCO2 [Example 180, (18aS)-13-(3-aminoazetidin-1-yl)-8-(methanesulfonyl)-2,11-dimethyl-6,7,8,9,10,11,19,20,21,22-decahydro-18aH,24H-18,15-(metheno)pyrido[2,1-l]pyrimido[6,1-h][1,4,7,9,10,13]benzoxapentaazacyclohexadecin-24-one]
The EC50 of the first is lower: 4.48 nmol/L for the first, 33 nmol/L for the second.

Compared with `Cc1ccc2c(c1)C(=O)N1CCCC[C@H]1c1cc3nc(N4CC(O)C4)cc(n3n1)N(C)CCN(S(C)(=O)=O)CCO2` [Example 179, (18aS)-13-(3-hydroxyazetidin-1-yl)-8-(methanesulfonyl)-2,11-dimethyl-6,7,8,9,10,11,19,20,21,22-decahydro-18aH,24H-18,15-(metheno)pyrido[2,1-l]pyrimido[6,1-h][1,4,7,9,10,13]benzoxapentaazacyclohexadecin-24-one], `Cc1ccc2c(c1)C(=O)N1CCCC[C@H]1c1cc3nc(NCCN)cc(n3n1)N(C)CCN(S(C)(=O)=O)CCO2` [Example 182, (18aS)-13-[(2-aminoethyl)amino]-8-(methanesulfonyl)-2,11-dimethyl-6,7,8,9,10,11,19,20,21,22-decahydro-18aH,24H-18,15-(metheno)pyrido[2,1-l]pyrimido[6,1-h][1,4,7,9,10,13]benzoxapentaazacyclohexadecin-24-one hydrochloride] is higher in EC50: 7.33 nmol/L for the first, 14.2 nmol/L for the second. The first is the more potent here.

Going from `CCC1c2cc3nc(N4CC[C@H](N)C4)cc(n3n2)N(C)CCN(S(C)(=O)=O)CCOc2ccc(C)cc2C(=O)N1C` (stereo partly drawn) [Example 195, (18S)-3-[(3S)-3-aminopyrrolidin-1-yl]-18-ethyl-8-(methanesulfonyl)-5,14,17-trimethyl-5,6,7,8,9,10,17,18-octahydro-16H-19,1-(metheno)pyrimido[6,1-h][1,4,7,9,11,13]benzoxapentaazacyclohexadecin-16-one] to `CC[C@H]1c2cc3nc(NCC(C)(C)N)cc(n3n2)N(C)CCCCOc2ccc(C)cc2C(=O)N1C` [Example 208, (17S)-3-[(2-amino-2-methylpropyl)amino]-17-ethyl-5,13,16-trimethyl-6,7,8,9,16,17-hexahydro-5H,15H-18,1-(metheno)pyrimido[6,1-g][1,6,8,9,12]benzoxatetraazacyclopentadecin-15-one hydrochloride], the EC50 falls from 20.5 nmol/L to 4.33 nmol/L. The second is the more potent here.
